From US8053453B2, “Pyrazolone compounds and thrombopoietin receptor activator” (Nissan Chemical Industries, Ltd., priority 2002, dated 2011)
Like-named read-outs stand apart in the source and are kept apart here.

Biological target: T1, human TPO receptor (Homo sapiens, UniProt P40238)
T1 construct: expressed in transfected cells
T1 sequence (P40238 26-635): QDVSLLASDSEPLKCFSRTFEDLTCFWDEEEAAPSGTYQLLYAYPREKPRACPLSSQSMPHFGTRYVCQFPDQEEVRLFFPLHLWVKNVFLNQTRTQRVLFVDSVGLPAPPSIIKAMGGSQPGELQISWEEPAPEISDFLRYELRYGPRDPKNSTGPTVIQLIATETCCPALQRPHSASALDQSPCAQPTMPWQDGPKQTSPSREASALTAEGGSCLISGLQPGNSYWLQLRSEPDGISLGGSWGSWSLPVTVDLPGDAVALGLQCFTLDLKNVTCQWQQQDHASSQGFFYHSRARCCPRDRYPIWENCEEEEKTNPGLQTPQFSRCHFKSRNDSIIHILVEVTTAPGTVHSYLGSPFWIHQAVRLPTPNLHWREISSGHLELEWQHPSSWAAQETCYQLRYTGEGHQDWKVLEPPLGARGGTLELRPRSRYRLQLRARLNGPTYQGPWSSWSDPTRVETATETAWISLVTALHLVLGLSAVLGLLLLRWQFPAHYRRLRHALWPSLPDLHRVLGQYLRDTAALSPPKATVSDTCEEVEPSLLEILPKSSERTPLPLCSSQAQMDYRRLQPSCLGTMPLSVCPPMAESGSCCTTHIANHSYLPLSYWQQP
Assay: Proliferation of TPO-dependent cell line UT7/EPO-mpl, MTT method (Assay Examples 1, 3, 4)
Assay type: cell-based
Settings: UT7/EPO-mpl cells; for EC50: concentration giving 50% of the maximum cell growth observed with the same compound; for Efficacy (%) (maximal growth rate) / Emax: value in the presence of 10 ng/ml TPO taken as 100% standard, method of Assay Example 1; for Emax: read-out: Efficacy (%) (maximal growth rate)
Procedure: The reactivity of Synthetic Example 56, the compound of the present invention, with thrombopoietin (TPO) receptor was assayed using a human leukemic cell line, UT7/EPO-mpl.
UT7/EPO-mpl is a stable transformed cell line obtained by introducing into human leukemic cell line UT7/EPO a vector that induces expression of human TPO receptor (c-mp1) under control of a cytomegaloviral promoter by the method of Takatoku et al. (J. Biol. Chem., 272:7259-7263 (1997)). […] These two cell lines were subcultured in Iscove's modified Dulbecco's medium (IMDM; GIBCO) containing 10% fetal bovine serum (FBS; TRACE SCIENTIFIC) using a CO2 incubator (5% CO2, 37° C.).
The subcultured cells described above were washed twice with phosphate buffered saline (PBS) and suspended in IMDM containing 10% FBS at a cell density of 6×10^4 cells/ml. The cell suspension was transferred to a 96-well tissue culture plate (CORNING) in 100-μl aliquots. Then either TPO (PeproTech EC) or Synthetic Example 56 dissolved in dimethylsulfoxide (DMSO) was diluted 83-fold with IMDM containing 10% FBS and added to the aforementioned cell suspension in 20-μl aliquots. The suspension was incubated in a CO2 incubator (5% CO2, 37° C.) for 4 days. Cell proliferation was assayed according to the method of Mosmann et al. (J. Immunol. Methods, 65:55-63 (1983)). A 10-μl aliquot of 5 mg/ml MTT reagent (SIGMA) was added to each well of the tissue culture plate and the plate was incubated at 37° C. for 4 h. The formazan pigment generated was dissolved by adding 150 μl per well of 0.1 M HCl/isopropanol solution and the absorbance of the resulting pigment solution was measured at 550 nm with a 96-well microplate reader (BIO-RAD, M450).
The following Synthetic Examples were tested according to the method of Assay Example 1 to determine the maximal growth rate (efficacy), expressed by taking the value with human leukemic cell line UT7/EPO-mpl observed in the presence of 10 ng/ml TPO as 100% standard, and the concentration of each compound that yields a growth rate corresponding to 50% of the maximum cell growth observed with the same compound (EC50).
Synthetic Example 56, the compound of the present invention, and four compounds (Reference Synthetic Examples 1 to 4) described in a publication of international patent application (Publication No. WO01/34585, applied by SmithKline Beecham Corp.) were tested according to the method of Assay Example 1.

[1] = read-out: EC50 (ng/ml) (converted)

EC50 [µg/mL] | Efficacy (%) (maximal growth rate) | EC50 [1] [nM] | Emax [%] | SMILES
0.0011 | 96 |  |  | CC1=NN(c2ccc(C(F)(F)F)cc2)C(=O)C1=C(C)NNC(=O)c1ccc(O)cc1O [compound 33]
0.0052 | 99 |  |  | CC1=NN(c2ccc(C(F)(F)F)cc2)C(=O)C1=C(C)NNC(=O)c1ccc(O)c(O)c1 [compound 34]
0.034 | 99 |  |  | CC1=NN(c2ccc(C(F)(F)F)cc2)C(=O)C1=C(C)NNC(=O)c1ccccc1[N+](=O)[O-] [compound 35]
0.059 | 97 |  |  | CC1=NN(c2ccc(C(F)(F)F)cc2)C(=O)C1=C(C)NNC(=O)c1cccc([N+](=O)[O-])c1 [compound 36]
0.14 | 63 |  |  | CC1=NN(c2ccc(C(F)(F)F)cc2)C(=O)C1=C(C)NNC(=O)c1ccc([N+](=O)[O-])cc1 [compound 37]
0.036 | 93 |  |  | CC1=NN(c2ccc(I)cc2)C(=O)C1=C(C)NNC(=O)c1ccccc1O [compound 38]
0.028 | 97 |  |  | CC1=NN(c2ccc(I)cc2)C(=O)C1=C(C)NNC(=O)c1ccc(O)cc1 [compound 39]
0.25 | 37 |  |  | CC1=NN(c2ccc(I)cc2)C(=O)C1=C(C)NNC(=O)c1cc2ccccc2cc1O [compound 40]
0.032 | 115 |  |  | CC1=NN(c2ccc(I)cc2)C(=O)C1=C(C)NNC(=O)c1ccc(O)c(O)c1 [compound 41]
0.25 | 71 |  |  | CC1=NN(c2ccc(I)cc2)C(=O)C1=C(C)NNC(=O)c1ccccc1[N+](=O)[O-] [compound 42]
0.083 | 87 |  |  | CC1=NN(c2ccc(I)cc2)C(=O)C1=C(C)NNC(=O)c1cccc([N+](=O)[O-])c1 [compound 43]
0.25 | 26 |  |  | CC1=NN(c2ccc(I)cc2)C(=O)C1=C(C)NNC(=O)c1ccc([N+](=O)[O-])cc1 [compound 44]
0.03 | 74 |  |  | CC1=NN(c2cccc(C(F)(F)F)c2)C(=O)C1=C(C)NNC(=O)c1ccccc1O [compound 45]
0.015 | 82 |  |  | CC1=NN(c2cccc(C(F)(F)F)c2)C(=O)C1=C(C)NNC(=O)c1ccc(O)cc1 [compound 46]
0.19 | 48 |  |  | CC1=NN(c2cccc(C(F)(F)F)c2)C(=O)C1=C(C)NNC(=O)c1cc2ccccc2cc1O [compound 47]
0.008 | 62 |  |  | CC1=NN(c2cccc(C(F)(F)F)c2)C(=O)C1=C(C)NNC(=O)c1ccc(O)cc1O [compound 48]
0.0091 | 62 |  |  | CC1=NN(c2cccc(C(F)(F)F)c2)C(=O)C1=C(C)NNC(=O)c1ccc(O)c(O)c1 [compound 49]
0.037 | 89 |  |  | CC1=NN(c2cccc(C(F)(F)F)c2)C(=O)C1=C(C)NNC(=O)c1ccccc1[N+](=O)[O-] [compound 50]
0.033 | 73 |  |  | CC1=NN(c2cccc(C(F)(F)F)c2)C(=O)C1=C(C)NNC(=O)c1cccc([N+](=O)[O-])c1 [compound 51]
 |  | 268 | 22 | CC1=NN(c2cccc(C(F)(F)F)c2)C(=O)C1=C(C)NNC(=O)c1ccc([N+](=O)[O-])cc1 [compound 52]
 |  | 31.7 | 120 | CC1=NN(c2ccc(C)c(C)c2)C(=O)C1=C(C)NNC(=O)c1ccccc1O [compound 53]

EC50 [µg/mL] | Efficacy (%) (maximal growth rate) | EC50 [1] [nM] | Emax [%] | SMILES
0.0075 | 61 |  |  | CC1=NN(c2ccc(C)c(C)c2)C(=O)C1=C(C)NNC(=O)c1ccc(O)cc1 [compound 54]
0.22 | 53 |  |  | CC1=NN(c2ccc(C)c(C)c2)C(=O)C1=C(C)NNC(=O)c1cc2ccccc2cc1O [compound 55]
0.0011 | 96 |  |  | CC1=NN(c2ccc(C)c(C)c2)C(=O)C1=C(C)NNC(=O)c1ccc(O)cc1O [compound 56]
0.0059 | 97 |  |  | CC1=NN(c2ccc(C)c(C)c2)C(=O)C1=C(C)NNC(=O)c1ccc(O)c(O)c1 [compound 57]
0.032 | 110 |  |  | CC1=NN(c2ccc(C)c(C)c2)C(=O)C1=C(C)NNC(=O)c1ccccc1[N+](=O)[O-] [compound 58]
 |  | 58.9 | 82 | CC1=NN(c2ccc(C)c(C)c2)C(=O)C1=C(C)NNC(=O)c1cccc([N+](=O)[O-])c1 [compound 59]
0.1 | 62 |  |  | CC1=NN(c2ccc(C)c(C)c2)C(=O)C1=C(C)NNC(=O)c1ccc([N+](=O)[O-])cc1 [compound 60]
0.029 | 91 |  |  | CC1=NN(c2ccc(Cl)c(Cl)c2)C(=O)C1=C(C)NNC(=O)c1ccccc1O [compound 61]
0.0064 | 57 |  |  | CC1=NN(c2ccc(Cl)c(Cl)c2)C(=O)C1=C(C)NNC(=O)c1ccc(O)cc1 [compound 62]
0.19 | 21 |  |  | CC1=NN(c2ccc(Cl)c(Cl)c2)C(=O)C1=C(C)NNC(=O)c1cc2ccccc2cc1O [compound 63]
0.0077 | 74 |  |  | CC1=NN(c2ccc(Cl)c(Cl)c2)C(=O)C1=C(C)NNC(=O)c1ccc(O)cc1O [compound 64]
0.0089 | 70 |  |  | CC1=NN(c2ccc(Cl)c(Cl)c2)C(=O)C1=C(C)NNC(=O)c1ccc(O)c(O)c1 [compound 65]
0.033 | 133 |  |  | CC1=NN(c2ccc(Cl)c(Cl)c2)C(=O)C1=C(C)NNC(=O)c1ccccc1[N+](=O)[O-] [compound 66]
0.033 | 80 |  |  | CC1=NN(c2ccc(Cl)c(Cl)c2)C(=O)C1=C(C)NNC(=O)c1cccc([N+](=O)[O-])c1 [compound 67]
0.21 | 26 |  |  | CC1=NN(c2ccc(Cl)c(Cl)c2)C(=O)C1=C(C)NNC(=O)c1ccc([N+](=O)[O-])cc1 [compound 68]
0.0057 | 89 |  |  | CC1=NN(c2ccc(C(C)(C)C)cc2)C(=O)C1=C(C)NNC(=O)c1ccc(N)cc1 [compound 69]
0.023 | 87 |  |  | CC1=NN(c2ccc(C(C)(C)C)cc2)C(=O)C1=C(C)NNC(=O)c1cccc(N)c1 [compound 70]
0.069 | 89 |  |  | CC1=NN(c2ccc(C(C)(C)C)cc2)C(=O)C1=C(C)NNC(=O)c1ccc(C(F)(F)F)cc1 [compound 71]
0.075 | 88 |  |  | CC1=NN(c2ccc(C(C)(C)C)cc2)C(=O)C1=C(C)NNC(=O)c1ccc(C(C)(C)C)cc1 [compound 72]
0.01 | 84 |  |  | CC1=NN(c2ccc(C)c(C)c2)C(=O)C1=C(C)NNC(=O)c1ccc(N)cc1 [compound 73]
